From patent US20020058020A1, “Isolated amphiphilic peptides derived from the cytoplasmic tail of viral envelope proteins” (priority 1999, published 2002)
Ends that are not written are not given here. R1 = not defined here

Experiments:
[1] = Peptide-induced K+ release from liposomes (Example 1); format: biochemical; settings: for % K+-release: liposomes POPG/POPC 1:3, 10 mg/ml, loaded with 100 mM KCl, total release with 0.1 M Triton X-100, <2% not detectable
Method: Liposomes were prepared from 1-Palmitoyl-2-Oleoyl-sn-Glycero-3-(Phospho-rac-(1-glycerol)) (POPG) and 1-Palmitoyl-2-Oleoyl-sn-Glycero-3-Phosphocholine (POPC) (Avanti Polar Lipids Inc., Birmingham, Ala.). The lipid-chloroform solutions were mixed at a molar ratio of 1:3 (POPG:POPC), dried under N2 and vacuum, sonicated, and taken through freeze-thaw cycles repeated a minimum of 5 times.
Peptide-induced K′ release from liposomes. […] Enzymol., Vol. 235, pgs. 699-713 (1994).
^b Percentage of the intraliposomal K^+ release induced by […] peptides from liposomes (POPG/POPC 1:3, 10 mg/ml) loaded with 100 mM KC1 and dialyzed against 100 mM NaCl buffer. […] . Total K^+ release was obtained with 0.1 M Triton X-100.
A novel approach was developed to measure the membrane activity of peptide 598-616. Peptide-induced release of K^+ from KCl-loaded lipid vesicles was detected using a K^+-selective electrode. The addition of 10 μM wild type peptide 598-616 causes 29% K^+ content release. At a concentration of 30 μM, about 70% K^+ content is released from liposomes (data not shown). For comparison, 10 μM melittin, a lytic component of bee venom, causes 31% K^+ content release.

[2] = Peptide-induced K+ release from unilamellar liposomes (Example 2); settings: 22° C.; for % K+ - Release POPC: POPC liposomes; for % K+ - Release POPC:POPG1:1: POPC:POPG 1:1 liposomes; for % K+ - Release POPC:POPG,3:1: POPC:POPG 3:1 liposomes
Method: Peptide-induced K′ release from liposomes. Liposomes (see above) were made in 100 nM KCl, 10 mM Tris-HCl, pH 7.5. The external KCl was reduced to less than 0.1 mM by two passages through a PD10 column (Pharmacia Biotech AB, Uppsala, Sweden) equilibrated in NaCl buffer (100 mM NaCl, 10 mM Tris-HCl, pH 7.5). Potassium release from liposomes was detected by a K′-selective microelectrode (Micro-electrode Inc.) and recorded on VHS tape using a pulse-code modulator. Peptides were assayed at 10 μM and 30 μM.
Unilamellar liposomes formed from (i) POPC; (ii) POPC and POPG at a molar ratio of POPC: POPG of 3:1, or (iii) POPC and POPG at a molar ratio of POPC: POPG of 1:1 were prepared in 100 mM KC1 according to the procedure described in Example 1. Peptide-induced K+ release from the liposomes also was detected according to the procedure described in Example 1. All measurements were carried out at 22° C.

[3] = tested on: XC6 cell co-cultured with env-transfected 293T cells; assay: End point cell-to-cell fusion assay, 293T/XC6 co-culture; settings: relative fusion efficiency, WT = 100
Method: Viral particles were obtained from 293T cells transfected transiently (n=3−5) with the expression plasmids for env, gag-pol, and β-gal, with wild type or mutant (616*, 601*, 598*, 595SR*, 578*, GLA ecto) env. Transduction efficiency of these virions (white bars=titers) was tested on NIH3T3 cells. The Env fusogenicity (filled bars =% fusion) was measured by expressing Env only in 293T cells. The indicator XC6 cells were added 24 hours post-transfection, were fixed 12 hours later and scored microscopically on ten 2 mm^2 grids for syncytia (cells with four or more nuclei).
Cell-To-Cell Fusion Assays For the end point fusion assay, 5×10^5 XC6 cells were added to the env transfected 293 T cells 20 hrs. post-transfection, and stained with methylene blue (0.01% in methanol) at about 36 hours post-transfection for syncytia (cells with 4 or more nuclei) scoring.
The end point fusion assay measures env-induced cell-to-cell fusion between env-transfected 293T cells and the ecotropic receptor expressing XC cells at 36 hrs post-transfection.

[4] = tested on: NIH3T3 cells; assay: Syncytia formation in env-transfected NIH3T3 cells; format: cell-based; settings: relative fusion efficiency, normalized to 616* = 100
[5] = tested on: env-transfected 293T cells; assay: Cell surface envelope protein expression by indirect immunofluorescence; settings: relative, WT = 100
Method: NIH3T3 cells (1H10^5) , 293T or 293/12 (1H10^6) per 60 mm2 plates were transfected according to the Ca(PO4)2 transfection protocol of 5′-3′ Inc. (Boulder, Colo.) (day 1). For cell surface expression and co-culture experiments, 15 μg env expression plasmid was used.
Cell Surface Expression And The Analysis Of Viral Envelope Particle Incorporation Assays were done as described in Januszeski, et al., J. Virol., Vol. 71, pgs.

[6] = tested on: NIH3T3 cells; assay: Transduction assay, β-gal titer on NIH3T3 cells; format: cell-based; settings: WT = 100
[7] = Electron paramagnetic resonance analysis of spin labeled peptides with liposomes; format: physicochemical; settings: for aggregation state by EPR (in words): membrane-bound state or solution
Method: B. Spin-Labeled Peptide 598-616 Associates With Membranes As Determined By Electron Paramagnetic Resonance (EPR) Analysis. […]; lipid to peptide molar ratio 100:1; solid line). The arrow marks the position of a small component of free spin.
Spin labeled peptides (50 μM) diluted in buffer (50mM NaPO4, 100 mM NaCl, pH 7.4) were added to the extruded liposomes at a peptide-to-lipid molar ratio of greater than 1/100. X-band electron paramagnetic resonance (EPR) spectra were recorded at room temperature. The spin accessibility parameter (II) was determined for 20 mM nickel ethylenediaminediacetic acid, or NiEDDA, and O2 in equilibrium with air as previously described (Farahbakhsh, et al., Photochemistry and Photobiolocy, Vol. 56, pgs. 1019-1033 (1992)). The topology or context parameter φ was calculated as φ=ln [II(O2)/II(NiEDDA)] (Altenbach, et al., Proc. Nat. Acad. Sci., Vol. 91, pgs. 1667-1671 (1994)).
The structural features of the peptide 598-616 bound to membranes were investigated further by EPR analysis of corresponding peptides modified to contain single R1 nitroxide side chains at the positions indicated in FIG. 2C. For each labeled peptide in solution, the EPR spectrum consisted of three sharp resonance lines characteristic of a random coil for peptides containing R1 (Farahbakhsh, et al., Biochemistry, Vol. 34, pgs. 509-516 (1995)). A representative example is shown by the dotted line in FIG. 2B for the V606-R1 peptide. […] Judging from the line shapes, the contribution from the unbound peptide is very small, less than 1% (arrow FIG. 2B). All peptides 598-616 gave similar effects, although the individual line shapes varied (data not shown).
Spin-spin interactions between nitroxides result in spectral broadening over and above that due to motional effects (Mchaourab, et al., Biochemistry, Vol. 36, pgs. 307-316 (1997)).

[8] = Circular dichroism analysis of α-helical content; format: physicochemical; settings: for secondary structure by CD (in words): aqueous vs liposome environment
Method: A. Membrane-Dependent Formation Of An α-Helical Structure By Peptide 598-616 As measured By Circular Dichroism (CD). The plot represents an average of 9 CD spectra for 50 μM peptide 598-616 in an aqueous solution (20 mM NaPO4,pH 7, dashed line), and in presence of liposomal membrane vesicles (POPG/POPC [1:3] liposomes in 20 mM Na2 PO4, pH 7.4; lipid to peptide molar ratio 100:1; solid line). The measurements were obtained for wavelength 195-250 nm at 20 mdeg sensitivity.
The peptides for circular dichroism (CD) analysis were used at a final concentration of 50 μM. The stock solution of extruded liposomes at 50 mg/ml was used. The final peptide-to-lipid molar ratio was 1/100 in 20 mM Na2PO4 buffer. CD spectra were obtained using a Jasco J-600 CD spectrometer. Samples were scanned from 250 nm to 195 nm using cuvettes with a path length of 1 mm. Each result represents an average of 9 scans.
To analyze the secondary structure of the peptides corresponding to MoMuLV cytoplasmic tail segments, the peptides 598-616 and 617-632 were evaluated by CD spectroscopy. The CD spectrum produced by the peptide 598-616 absorption of polarized light in an aqueous environment is characteristic of a random coil conformation (FIG. 2A, dotted line). […] The estimated percent α-helicity for peptide 598-616 is nearly 60%. Similar α-helical properties have been observed for the lytic amphiphilic segments from HIV-1 env cytoplasmic tail and the active component of bee venom, melittin (Eisenberg, et al., Biopolymers, Vol. 29, pgs. 171-177 (1992)). Thus, the computer-predicted α-helical structure for the region 598-616 is confirmed for peptide 598-616 by CD analysis in the presence of membranes.

| Compound | % K+ - Release POPC [2] [%] | % K+ - Release POPC:POPG1:1 [2] [%] | % K+ - Release POPC:POPG,3:1 [2] [%] | also measured |
| --- | --- | --- | --- | --- |
| CC[C@H](C)[C@H](NC(=O)CN)C(=O)NCC(=O)N[C@@H](C)C(=O)N[C@H](C(=O)N[C@@H](CC(C)C)C(=O)N[C@@H](CCCCN)C(=O)N[C@H](C(=O)N[C@@H](CC(C)C)C(=O)N[C@H](C(=O)N[C@H](C(=O)NCC(=O)N[C@@H](CC(C)C)C(=O)N1CCC[C@H]1C(=O)N[C@@H](C)C(=O)N[C@@H](CC(C)C)C(=O)N[C@H](C(=O)N[C@@H](CO)C(=O)N[C@@H](Cc1c[nH]c2ccccc12)C(=O)N[C@H](C(=O)N[C@@H](CCCCN)C(=O)N[C@@H](CCCNC(=N)N)C(=O)N[C@@H](CCCCN)C(=O)N[C@@H](CCCNC(=N)N)C(=O)N[C@@H](CCC(N)=O)C(=O)N[C@@H](CCC(N)=O)C(N)=O)[C@@H](C)CC)[C@@H](C)CC)[C@@H](C)O)[C@@H](C)O)C(C)C)C(C)C [melittin, reference compound] | 31 | 27 | 31 | K+ content release ([1]; 10 μM peptide): 31%; % K+-release [1]: 30.9 ± 2.1% |
| 598-616 R601C: peptide 598-616 with R601C substitution (ILNCLVQFVKDRISVVQAL; UniProt P03385 631-649, looked up, variant R601C) | 32 | 13 | 10 | – |
| Triton X-100 [reference compound] | 100 | 100 | 100 | % K+-release [1]: 100% |
| 598-616 D608C: peptide 598-616 with D608C substitution (ILNRLVQFVKCRISVVQAL; UniProt P03385 631-649, looked up, variant D608C) | 5 | 11 | 7 | – |
| 598-632 Q604C: peptide 598-632 with Q604C substitution | 6 | 31 | 30 | – |
| 598-616 F605C: peptide 598-616 with F605C substitution (ILNRLVQCVKDRISVVQAL; UniProt P03385 631-649, looked up, variant F605C) | 8 | 7 | 4 | – |
| Magainin [reference compound] | 8 | 51 | 43 | – |
| WT: wild type MoMuLV ecotropic envelope protein | – | – | – | Fusion 293T/XC6 [3]: 100; Fusion NIH3T [4]: 0; Cell Surface Expression [5]: 100; Titer (relative β-gal titer) [6]: 100 |
| 598-611: peptide of MoMuLV env residues 598-611 (ILNRLVQFVKDRIS; UniProt P03385 631-644, looked up, fragment) [Peptide 598-611] | – | 22 | 13 | – |
| 598-616 Q604C: peptide 598-616 with Q604C substitution (ILNRLVCFVKDRISVVQAL; UniProt P03385 631-649, looked up, variant Q604C) | 29 | 28 | 20 | – |
| 598-616 R609A: peptide 598-616 with Arg 609 Ala mutation (ILNRLVQFVKDAISVVQAL; UniProt P03385 631-649, looked up, variant R609A) | 11 | 0 | 0 | loss of K+ release relative to wild type peptide 598-616 [1]: 75%; % K+-release [1]: 9.9 ± 1.8% |
| 602-616: peptide of MoMuLV env residues 602-616 (LVQFVKDRISVVQAL; UniProt P03385 635-649, looked up, fragment) [Peptide 602-616] | 2 | 5 | 4 | – |
| 598-632: peptide representing the whole cytoplasmic tail region (598-632) [Peptide 598-632] | – | – | – | aggregation state by EPR (in words) [7]: monomeric association with the membrane; secondary structure by CD (in words) [8]: higher helical content in the presence of membrane vesicles than the peptide 598-616 alone |
| ILNRLVQFVKDRISVVQAL (Moloney murine sarcoma virus) [Peptide 598-616] | 9 | 24 | 13 | aggregation state by EPR (in words) [7]: monomeric association with the membrane; K+ content release ([1]; 10 μM peptide): 29%; K+ content release ([1]; 30 μM peptide, data not shown): about 70%; % K+-release [1]: 29.3 ± 3.6%; estimated percent α-helicity ([8]; 50 μM peptide in presence of liposomes, lipid to peptide 100:1): ~60%; secondary structure by CD (in words) [8]: becomes α-helical |
| V606-R1 peptide: nitroxide-labeled peptide 598-616 V606C(R1) (ILNRLVQFC(R1)KDRISVVQAL; reading uncertain; UniProt P03385 631-649, looked up, variant V606C) | – | – | – | contribution from the unbound peptide ([7]; upon addition to liposomes, judged from EPR line shapes): less than 1% |
